From US7230085B2, “Anti-DOTA antibody” (Immunomedics, Inc., priority 2001, dated 2007)
Where a SMILES comes first, the peptide text is derived from it. The star is where a group is joined. DOTA = O=C(O)CN1CCN(CC(=O)O)CCN(CC(=O)*)CCN(CC(=O)O)CC1

What was measured:
[1] = tested on: human colonic tumor cell line, termed GW-39; test: Biodistribution in nude mice bearing GW-39 tumors; design: species or system NcR athymic nude mice; settings: mouse, in vivo
Method: NcR athymic nude mice are implanted with cells of the human colonic tumor cell line, termed GW-39. When tumors have reached an appropriate size (>100 mm^3) agents are injected. The I-125-radioiodinated msAb is given first, and at different later times the In-111-IMP-236 is administered. The latter radiolabeled peptide is also given alone to a control group of animals. Doses given to each animal are 1.5×10^−10 moles of I-125-hMN-14×mLG1 (8 uCi of I-125 per animal), and 1.5×10^−11 moles of In-111-IMP-236. At specified times post-injection of the labeled IMP-236 animals are sacrificed and major internal tissues are collected and quantified for both I-125 and In-111 radioactivity.

[2] = tested on: LG1 IgG antibody; test: Binding of radiolabeled IMP 236 by LG1 on size-exclusion HPLC; design: species or system mouse; settings: mixed with excess LG1; SE-HPLC shift
Method: Typical procedures for the production of radiolabeled DOTA-peptides incorporating, for example, Y-90 and Lu-177 are as follows. Of particular importance is the maximum specific activity achievable, which depends on the quality of the isotope. The radionuclide, obtained in an acidic solution, is treated with an excess of an acetate buffer, to a final pH of 4-6, and added to the DOTA-peptide conjugate, also in acetate buffer. All manipulations are carried out using acid-washed and metal-free components. The labeling mixture is heated at 45° C. for one hour and then allowed to cool to room temperature. Radiolabeled peptides are analyzed by RP-HPLC to determine incorporation, and are tested for binding to LG1, by mixing with a small excess of the LG1 mAb, and testing by analytical size-exclusion HPLC.
Yttrium-90 (^˜400 uCi per kit) is diluted to 1 mL in deionized water and added in one portion to the lyophilized IMP 236 kits of example 12. The kits are heated in a boiling water-bath for 15 min, and the vials then cooled to room temperature. The Y-90 radiolabeled peptides are analyzed by reverse-phase HPLC. […]
Indium-111 [In-111] radionuclide (^˜300 uCi added per kit) is diluted to 0.5 mL in deionized water and added to the lyophilized kits. […] The labeled peptide vials are cooled to room temperature and evaluated by reverse-phase HPLC. […]

[3] = tested on: hLL2-DOTA-yttrium; test: Qualitative binding on size-exclusion HPLC; settings: SE-HPLC
Description: (§1) The msAb, LG1×hMN-14 (Fab′×Fab) is shown by the same analysis to bind to hLL2-DOTA-yttrium.

[4] = tested on: hLL2-DOTA; test: Qualitative binding on size-exclusion HPLC; settings: SE-HPLC
Description: as §1

[5] = tested on: hMN-14-DOTA-yttrium-90; test: Qualitative binding on size-exclusion HPLC; settings: SE-HPLC

CC(=O)N[C@@H](Cc1ccccc1)C(=O)N[C@@H](CCCCNC(=O)CN1CCN(CC(=O)O)CCN(CC(=O)O)CCN(CC(=O)O)CC1)C(=O)N[C@@H](Cc1ccc(O)cc1)C(=O)N[C@@H](CCCCNC(=O)CN1CCN(CC(=O)O)CCN(CC(=O)O)CCN(CC(=O)O)CC1)C(N)=O [In-111-IMP-236, metal not drawn] (Ac-FK(DOTA)YK(DOTA)-NH2)
Blood, 30 minutes [1]: 1.0 ± 0.3 percent injected dose per gram of tissue
Blood, 3 h [1]: 0.0 ± 0.0 percent injected dose per gram of tissue
Blood, 24 h [1]: 0.0 ± 0.0 percent injected dose per gram of tissue
Blood, In-111, 3 h [1]: 0.4 ± 0.0 percent injected dose per gram of tissue
Blood, In-111, 24 h [1]: 0.0 ± 0.0 percent injected dose per gram of tissue
Kidney, 30 minutes [1]: 4.2 ± 0.7 percent injected dose per gram of tissue
Kidney, 3 h [1]: 2.2 ± 0.2 percent injected dose per gram of tissue
Kidney, 24 h [1]: 0.0 ± 0.0 percent injected dose per gram of tissue
Kidney, In-111, 3 h [1]: 2.5 ± 0.6 percent injected dose per gram of tissue
Kidney, In-111, 24 h [1]: 1.0 ± 0.2 percent injected dose per gram of tissue
Liver, 30 minutes [1]: 0.3 ± 0.1 percent injected dose per gram of tissue
Liver, 3 h [1]: 0.2 ± 0.1 percent injected dose per gram of tissue
Liver, 24 h [1]: 0.0 ± 0.0 percent injected dose per gram of tissue
Liver, In-111, 3 h [1]: 0.2 ± 0.0 percent injected dose per gram of tissue
Liver, In-111, 24 h [1]: 0.1 ± 0.0 percent injected dose per gram of tissue
Lungs, 30 minutes [1]: 0.7 ± 0.2 percent injected dose per gram of tissue
Lungs, 3 h [1]: 0.1 ± 0.0 percent injected dose per gram of tissue
Lungs, 24 h [1]: 0.0 ± 0.0 percent injected dose per gram of tissue
Lungs, In-111, 3 h [1]: 0.2 ± 0.0 percent injected dose per gram of tissue
Lungs, In-111, 24 h [1]: 0.0 ± 0.0 percent injected dose per gram of tissue
Spleen, 30 minutes [1]: 0.3 ± 0.1 percent injected dose per gram of tissue
Spleen, 3 h [1]: 0.1 ± 0.0 percent injected dose per gram of tissue
Spleen, 24 h [1]: 0.0 ± 0.0 percent injected dose per gram of tissue
Spleen, In-111, 3 h [1]: 0.2 ± 0.0 percent injected dose per gram of tissue
Spleen, In-111, 24 h [1]: 0.1 ± 0.0 percent injected dose per gram of tissue
Stomach, 30 minutes [1]: 0.2 ± 0.1 percent injected dose per gram of tissue
Stomach, 3 h [1]: 0.0 ± 0.0 percent injected dose per gram of tissue
Stomach, 24 h [1]: 0.0 ± 0.0 percent injected dose per gram of tissue
Stomach, In-111, 3 h [1]: 0.1 ± 0.2 percent injected dose per gram of tissue
Stomach, In-111, 24 h [1]: 0.0 ± 0.0 percent injected dose per gram of tissue
Tumor, 30 minutes [1]: 1.6 ± 0.3 percent injected dose per gram of tissue
Tumor, 3 h [1]: 0.1 ± 0.0 percent injected dose per gram of tissue
Tumor, 24 h [1]: 0.0 ± 0.0 percent injected dose per gram of tissue
Tumor, In-111, 3 h [1]: 6.4 ± 1.1 percent injected dose per gram of tissue
Tumor, In-111, 24 h [1]: 1.3 ± 0.3 percent injected dose per gram of tissue
elimination [1]: quickly eliminated via the renal system

Ac-Phe-Lys(DOTA)-Tyr-Lys(DOTA)-NH2 (Ac-FK(DOTA)YK(DOTA)-NH2; SMILES CC(=O)N[C@@H](Cc1ccccc1)C(=O)N[C@@H](CCCCNC(=O)CN1CCN(CC(=O)O)CCN(CC(=O)O)CCN(CC(=O)O)CC1)C(=O)N[C@@H](Cc1ccc(O)cc1)C(=O)N[C@@H](CCCCNC(=O)CN1CCN(CC(=O)O)CCN(CC(=O)O)CCN(CC(=O)O)CC1)C(N)=O) [IMP 236]
binding of radiolabeled peptide by LG1 [2]: bind strongly

B1: Fab fragment of LG1: Fab fragment from ficin digestion of LG1 IgG (antibody, V domains shown)
VH: EVMLVESGGGLVKPGGSLTLSCAASGFTFTAHAMSWVRQTPEKRLEWVATISGGGTYTYFPDSFQGRFTISSDNAKNTLYLQMSSLRSEDTSMYFCTRHGDYRYAFGYWGQGTLVTVSA
VL: VVTQESALTTSPGETVTLTCRSSSGAVTTNNYANWVQEKPDHLFTGLIGGTNNRAPGVPARFSGSLIGDKAALTITGAQTEDEAIYFCALWFSDHWVFGGGTELTVLG
binding to hLL2-DOTA-yttrium [3]: positive binding
binding to hLL2-DOTA [4]: positive binding
binding to hMN-14-DOTA-yttrium-90 [5]: positive binding
